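Method: 48-hour compound exposure of cells in 96-well plates, five concentrations, linear interpolation of endpoints. GI50 is the concentration that inhibits growth by half. TGI is the concentration that stops growth completely.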
Experiments:
Experiment in all cases: NCI anticancer screen, dose series, 48 h
786-0 renal = test system: 786-0 renal
A498 renal = test system: A498 renal
ACHN renal = test system: ACHN renal
BT-549 breast = test system: BT-549 breast
CAKI-1 renal = test system: CAKI-1 renal
CCRF-CEM leukemia = test system: CCRF-CEM leukemia
COLO 205 colon = test system: COLO 205 colon
DU-145 prostate = test system: DU-145 prostate
EKVX NSCLC = test system: EKVX NSCLC
HCC-2998 colon = test system: HCC-2998 colon
HCT-116 colon = test system: HCT-116 colon
HCT-15 colon = test system: HCT-15 colon
HL-60(TB) leukemia = test system: HL-60(TB) leukemia
HOP-62 NSCLC = test system: HOP-62 NSCLC
HOP-92 NSCLC = test system: HOP-92 NSCLC
HS 578T breast = test system: HS 578T breast
HT29 colon = test system: HT29 colon
IGROV1 ovarian = test system: IGROV1 ovarian
K-562 leukemia = test system: K-562 leukemia
KM12 colon = test system: KM12 colon
LOX IMVI melanoma = test system: LOX IMVI melanoma
M14 melanoma = test system: M14 melanoma
MALME-3M melanoma = test system: MALME-3M melanoma
MCF7 breast = test system: MCF7 breast
MDA-MB-231 breast = test system: MDA-MB-231 breast
MDA-MB-435 = test system: MDA-MB-435
MDA-MB-468 breast = test system: MDA-MB-468 breast
MOLT-4 leukemia = test system: MOLT-4 leukemia
NCI-H226 lung = test system: NCI-H226 lung
NCI-H23 lung = test system: NCI-H23 lung
NCI-H460 lung = test system: NCI-H460 lung
NCI-H522 lung = test system: NCI-H522 lung
NCI/ADR-RES ovarian = test system: NCI/ADR-RES ovarian
OVCAR-3 ovarian = test system: OVCAR-3 ovarian
OVCAR-4 ovarian = test system: OVCAR-4 ovarian
OVCAR-5 ovarian = test system: OVCAR-5 ovarian
PC-3 prostate = test system: PC-3 prostate
RPMI-8226 leukemia = test system: RPMI-8226 leukemia
RXF 393 renal = test system: RXF 393 renal
SF-268 CNS = test system: SF-268 CNS
SF-295 CNS = test system: SF-295 CNS
SF-539 CNS = test system: SF-539 CNS
SK-MEL-2 melanoma = test system: SK-MEL-2 melanoma
SK-MEL-28 melanoma = test system: SK-MEL-28 melanoma
SK-MEL-5 melanoma = test system: SK-MEL-5 melanoma
SK-OV-3 ovarian = test system: SK-OV-3 ovarian
SN12C renal = test system: SN12C renal
SNB-19 CNS = test system: SNB-19 CNS
SNB-75 CNS = test system: SNB-75 CNS
SR leukemia = test system: SR leukemia
SW-620 colon = test system: SW-620 colon
T-47D breast = test system: T-47D breast
TK-10 renal = test system: TK-10 renal
U251 CNS = test system: U251 CNS
UACC-257 melanoma = test system: UACC-257 melanoma
UACC-62 melanoma = test system: UACC-62 melanoma
UO-31 renal = test system: UO-31 renal

In the case of COc1cc2c3c(n(CCCN4CCC[C@@H]4CO)c(=O)c2cc1OC)-c1cc2c(cc1C3=O)OCO2, the GI50 (786-0 renal) is reported as 647 nM, the TGI (786-0 renal) is reported as 1810 nM and the GI50 (A498 renal) is reported as 14000 nM. The TGI (A498 renal) was 28300 nM, the GI50 (ACHN renal) was 293 nM and the TGI (ACHN renal) was 1320 nM. For the same compound, the GI50 (BT-549 breast) was 1370 nM, the TGI (BT-549 breast) was 15500 nM and the GI50 (CAKI-1 renal) was 344 nM. The TGI (CAKI-1 renal) was 4960 nM, the GI50 (CCRF-CEM leukemia) was 27 nM and the TGI (CCRF-CEM leukemia) was 2260 nM. The GI50 (COLO 205 colon) was 1230 nM, the TGI (COLO 205 colon) was 5270 nM and the GI50 (DU-145 prostate) was 223 nM. For the same compound, the TGI (DU-145 prostate) was 1710 nM, the GI50 (EKVX NSCLC) was 1440 nM and the TGI (EKVX NSCLC) was 2880 nM. For the same compound, the GI50 (HCC-2998 colon) was 1400 nM, the TGI (HCC-2998 colon) was 2690 nM and the GI50 (HCT-116 colon) was 451 nM. The TGI (HCT-116 colon) was 2050 nM, the GI50 (HCT-15 colon) was 1260 nM and the TGI (HCT-15 colon) was 2580 nM. The GI50 (HL-60(TB) leukemia) was 871 nM, the TGI (HL-60(TB) leukemia) was 3110 nM and the GI50 (HOP-62 NSCLC) was 191 nM. For the same compound, the TGI (HOP-62 NSCLC) was 1680 nM, the GI50 (HOP-92 NSCLC) was 4270 nM and the TGI (HOP-92 NSCLC) was 9630 nM. For the same compound, the GI50 (HS 578T breast) was 4570 nM, the TGI (HS 578T breast) was 13000 nM and the GI50 (HT29 colon) was 1070 nM. For the same compound, the TGI (HT29 colon) was 2410 nM, the GI50 (IGROV1 ovarian) was 1310 nM and the TGI (IGROV1 ovarian) was 2640 nM. For the same compound, the GI50 (K-562 leukemia) was 1270 nM, the TGI (K-562 leukemia) was greater than 100000 nM and the GI50 (KM12 colon) was 1300 nM. The TGI (KM12 colon) was 2910 nM, the GI50 (LOX IMVI melanoma) was 226 nM and the TGI (LOX IMVI melanoma) was 1610 nM. It also gave a GI50 (M14 melanoma) of 473 nM, a TGI (M14 melanoma) of 1910 nM and a GI50 (MALME-3M melanoma) of 1370 nM. For the same compound, the TGI (MALME-3M melanoma) was 2830 nM, the GI50 (MCF7 breast) was 41.1 nM and the TGI (MCF7 breast) was 1450 nM. It also gave a GI50 (MDA-MB-231 breast) of 1380 nM, a TGI (MDA-MB-231 breast) of 2750 nM and a GI50 (MDA-MB-435) of 1220 nM. It also gave a TGI (MDA-MB-435) of 2540 nM, a GI50 (MDA-MB-468 breast) of 318 nM and a TGI (MDA-MB-468 breast) of 1280 nM. For the same compound, the GI50 (MOLT-4 leukemia) was less than 23.3 nM, the TGI (MOLT-4 leukemia) was 4130 nM and the GI50 (NCI-H226 lung) was 771 nM. The TGI (NCI-H226 lung) was 2620 nM, the GI50 (NCI-H23 lung) was 207 nM and the TGI (NCI-H23 lung) was 1520 nM. It also gave a GI50 (NCI-H460 lung) of 84.1 nM, a TGI (NCI-H460 lung) of 1300 nM and a GI50 (NCI-H522 lung) of 3050 nM. For the same compound, the TGI (NCI-H522 lung) was 20800 nM, the GI50 (NCI/ADR-RES ovarian) was 356 nM and the TGI (NCI/ADR-RES ovarian) was 2210 nM. The GI50 (OVCAR-3 ovarian) was 1350 nM, the TGI (OVCAR-3 ovarian) was 2910 nM and the GI50 (OVCAR-4 ovarian) was 1700 nM. The TGI (OVCAR-4 ovarian) was 3330 nM, the GI50 (OVCAR-5 ovarian) was 1460 nM and the TGI (OVCAR-5 ovarian) was 2800 nM. It also gave a GI50 (PC-3 prostate) of 1180 nM, a TGI (PC-3 prostate) of 2940 nM and a GI50 (RPMI-8226 leukemia) of 688 nM. The TGI (RPMI-8226 leukemia) was 3950 nM, the GI50 (RXF 393 renal) was 966 nM and the TGI (RXF 393 renal) was 2560 nM. It also gave a GI50 (SF-268 CNS) of 404 nM, a TGI (SF-268 CNS) of 2280 nM and a GI50 (SF-295 CNS) of 91.3 nM. It also gave a TGI (SF-295 CNS) of 1470 nM, a GI50 (SF-539 CNS) of 267 nM and a TGI (SF-539 CNS) of 1150 nM. It also gave a GI50 (SK-MEL-2 melanoma) of 16000 nM, a TGI (SK-MEL-2 melanoma) of 34300 nM and a GI50 (SK-MEL-28 melanoma) of 1650 nM. The TGI (SK-MEL-28 melanoma) was 3150 nM, the GI50 (SK-MEL-5 melanoma) was 966 nM and the TGI (SK-MEL-5 melanoma) was 12800 nM. It also gave a GI50 (SK-OV-3 ovarian) of 520 nM, a TGI (SK-OV-3 ovarian) of 10300 nM and a GI50 (SN12C renal) of 461 nM. It also gave a TGI (SN12C renal) of 1810 nM, a GI50 (SNB-19 CNS) of 408 nM and a TGI (SNB-19 CNS) of 1900 nM. For the same compound, the GI50 (SNB-75 CNS) was 630 nM, the TGI (SNB-75 CNS) was 5050 nM and the GI50 (SR leukemia) was 214 nM. It also gave a TGI (SR leukemia) greater than 100000 nM, a GI50 (SW-620 colon) of 399 nM and a TGI (SW-620 colon) of 2150 nM. It also gave a GI50 (T-47D breast) of 576 nM, a TGI (T-47D breast) of 19100 nM and a GI50 (TK-10 renal) of 16200 nM. For the same compound, the TGI (TK-10 renal) was 30600 nM, the GI50 (U251 CNS) was 358 nM and the TGI (U251 CNS) was 2200 nM. The GI50 (UACC-257 melanoma) was 12000 nM, the TGI (UACC-257 melanoma) was 28700 nM and the GI50 (UACC-62 melanoma) was 305 nM. For the same compound, the TGI (UACC-62 melanoma) was 9230 nM, the GI50 (UO-31 renal) was 762 nM and the TGI (UO-31 renal) was 2140 nM.

Reference: PubChem BioAssay (NCI)
